For three compounds, IC50 results are on record in ChEMBL document CHEMBL5050848, “Kif18a inhibitors” (2020).

In the experiment the target is T1, Kinesin-like protein KIF18A (Homo sapiens, UniProt Q8NI77).
T1 sequence (Q8NI77 whole entry): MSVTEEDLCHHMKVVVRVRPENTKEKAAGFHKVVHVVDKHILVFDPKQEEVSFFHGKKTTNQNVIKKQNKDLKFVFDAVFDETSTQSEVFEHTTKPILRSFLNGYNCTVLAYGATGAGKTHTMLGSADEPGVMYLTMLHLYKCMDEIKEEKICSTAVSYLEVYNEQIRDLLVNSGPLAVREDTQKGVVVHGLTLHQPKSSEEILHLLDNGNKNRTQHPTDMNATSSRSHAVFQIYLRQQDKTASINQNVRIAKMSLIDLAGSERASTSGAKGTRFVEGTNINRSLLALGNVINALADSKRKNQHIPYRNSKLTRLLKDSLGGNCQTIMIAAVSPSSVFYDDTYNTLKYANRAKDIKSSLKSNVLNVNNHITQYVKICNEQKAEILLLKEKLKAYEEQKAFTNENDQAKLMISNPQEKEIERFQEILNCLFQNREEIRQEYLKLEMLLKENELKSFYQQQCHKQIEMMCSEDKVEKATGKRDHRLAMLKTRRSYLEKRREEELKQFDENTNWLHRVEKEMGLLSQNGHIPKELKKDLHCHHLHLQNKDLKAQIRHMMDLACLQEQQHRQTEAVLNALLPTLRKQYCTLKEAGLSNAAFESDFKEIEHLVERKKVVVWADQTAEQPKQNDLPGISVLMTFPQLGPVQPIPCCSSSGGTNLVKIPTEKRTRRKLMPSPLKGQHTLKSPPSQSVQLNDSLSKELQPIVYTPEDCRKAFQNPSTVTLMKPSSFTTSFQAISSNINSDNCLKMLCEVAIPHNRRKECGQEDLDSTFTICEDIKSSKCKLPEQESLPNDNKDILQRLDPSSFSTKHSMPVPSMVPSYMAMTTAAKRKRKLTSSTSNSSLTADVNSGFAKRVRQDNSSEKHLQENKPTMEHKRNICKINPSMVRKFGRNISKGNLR
In words: Inhibition of recombinant His-tagged human KIF18A (1 to 467 residues) expressed in baculovirus expression system assessed as inhibition of microtubule-stimulated ATPase activity preincubated for 15 mins followed by ATP addition and further incubated for 15 mins and measured after 40 mins by ADP-Glo reagent based assay. Background: In ADP-Glo the light output rises with the ADP produced.
In general, IC50 refers to the concentration needed to halve the response being measured. Turning to `O=C(Nc1cccc(OC(F)F)n1)c1ccc(NS(=O)(=O)CCO)cc1N1CCC2(CC1)CC2`, the IC50 was 0.045 µM.

For `C[C@@H]1CN(c2cccc(NC(=O)c3ccc(NS(=O)(=O)CC(F)F)cc3N3CCC4(CC3)CC4)n2)CCO1`, the IC50 was found to be 0.067 µM. As to `Cc1cc(NC(=O)c2ccc(NS(=O)(=O)CCO)cc2N2CCC3(CC2)CC3)nc(N2CC(F)(F)C2)c1`, the IC50 came out at 0.024 µM.
